Experimental data: patent US9371335B2, “Spirothienopyran-piperidine derivatives as ORL-1 receptor antagonists for their use in the treatment of alcohol dependence and abuse” (Eli Lilly and Company, priority 2011, dated 2016)
Several values for one entry are separate records, joined by “and”; a condition that tells them apart may be missing. Equal values may be shown once.

Tests used:
P rats = experiment: Free-choice ethanol self-administration in P rats; type: in vivo, rat; conditions: for Mean EtOH Consumed in g/kg (Drug-treated) / Reduction vs. Vehicle (EtOH consumed): P rats, 12 hr
Excerpt: Free-Choice Ethanol Self-Administration in Alcohol-Preferring Rats: P Rats:
In this procedure (modified from Rodd-Henricks Z A, McKinzie D L, Shaikh S R, Murphy J M, McBride W J, Lumeng L and Li T K (2000) Alcohol deprivation effect is prolonged in the alcohol preferring (P) rat after repeated deprivations. Alcohol Clin Exp Res 24:8-16), female P rats are obtained from a private colony (Taconic, Germantown, N.Y.), individually-housed with food, 15% ethanol (v/v, in water), and water available ad libitum, and maintained on a 12 hr. light/dark cycle (lights off at 16:00). The chambers are equipped with a force transduction system (TSE Systems, Bad Homburg, Germany) attached to the ethanol, water, and food receptacles to enable continuous monitoring of food and liquid consumption. Rats voluntarily consume 15% ethanol with a mean daily intake of roughly 5 g/kg for several months prior to drug testing. Rats are treated orally with vehicle or test compounds in the dose range of 3, 10, or 30 mg/kg (3 mL/kg dose volume, dissolved in a vehicle consisting of 20% Captisol® in 25 mM phosphate buffer at pH=2), or naltrexone (10 mg/kg, 1 mL/kg dose volume, dissolved in water) immediately prior to the onset of the dark cycle, using a within-subjects, crossover design (3-4 day washout between subsequent doses). In a separate experiment, rats receive oral administration of vehicle followed by 4 daily oral doses of vehicle or 30 mg/kg test compound immediately prior to the onset of the dark cycle, using a between-subjects design.

[1] = system: Alcohol-Preferring (P) rats; experiment: Operant ethanol self-administration in P rats (progressive ratio schedule); type: in vivo, rat; conditions: female P rats, 10 mg/kg oral
Excerpt: Operant Self-Administration in P rats:
Female P rats are obtained and pair-housed from a private colony (Taconic, Germantown, N.Y.). In order to reduce novelty-induced avoidance of ethanol, the water bottle on the homecage is replaced with a bottle containing 15% ethanol in water (v/v, in water) for two days prior to operant training. Throughout the rest of the experiment, rats receive ad libitum access to water and standard laboratory chow, with no further access to ethanol in the homecage.
Rats are trained to press a lever for ethanol reinforcement in daily 30-min sessions conducted in standard rat operant chambers contained within sound-attenuating chambers (MED Associates, Inc., St. Albans, Vt.). The chambers consist of two stainless steel and two clear Plexiglas walls. The floor grid of the operant chambers consists of 0.5 cm diameter stainless steel bars placed approximately 1.5 cm apart. Each operant chamber contains two retractable operant levers located approximately 6 cm above the grid floor and 13 cm apart. A recessed trough is located in the space between the levers, through which a dipper cup (0.1 mL capacity) is raised to deliver response-contingent ethanol (15%, v/v, in water). Upon a reinforced response, a stimulus light is illuminated above the lever on which the response was made throughout the 4-sec dipper cup access. Operation of the stimuli and behavioral responses are controlled and recorded by personal computer for offline analysis (MED Associates, Inc., St. Albans, Vt.).
During operant training, responses on either lever are considered correct responses and are rewarded with 0.1 mL ethanol reinforcement. […] Once stable baseline responding is reached on an FR-1 schedule of reinforcement, the response contingency is increased to FR-2 and then again to FR-3 so that 3 lever presses are required for each reinforcement. […] Specifically, the response requirement is increased as follows: all rats begin each session at an FR-1 schedule of reinforcement; after three reinforcements, the schedule is increased to FR-2; after three reinforcements at that level, the schedule is increased by two to FR-4; after three reinforcements, the schedule is increased by two to FR-6; and so on (see for e.g. Oster S M, Toalston J E, Kuc K A, Pommer T J, Murphy J M, Lumeng L, Bell R L, McBride W J and Rodd Z A (2006) Effects of multiple alcohol deprivations on operant ethanol self-administration by high-alcohol-drinking replicate rat lines. Alcohol 38:155-164). Each session lasts a total of 30 min, after which, all stimuli are turned off and levers are retracted. […] The amount of ethanol consumed is calculated from the number of active lever presses, and converted into g/kg EtOH consumed. Rats receive oral administration of vehicle or test compound in the dose range of 3, 10, or 30 mg/kg (3 mL/kg dose volume, dissolved in a vehicle consisting of 20% Captisol® in 25 mM phosphate buffer at pH=2), or the nonselective opioid receptor antagonist naltrexone (10 mg/kg) as a positive control, 60 min. prior to the session, using a within-subjects, crossover design (3-4 day washout between subsequent doses). On a separate occasion, rats receive oral administration of vehicle or 30 mg/kg test compound (1 mL/kg dose volume, dissolved in a vehicle consisting of 20% Captisol® in 25 mM phosphate buffer), 30 min prior to the session, using a crossover design.

Structure (SMILES)	Mean EtOH Consumed in g/kg (Drug-treated) (P rats; 10 mg/kg oral, 10 mg/kg)	Reduction vs. Vehicle (EtOH consumed) (P rats; 10 mg/kg oral, 10 mg/kg)	Reduction vs. Vehicle (lever presses) [1] [%]	Mean Number of Lever Presses (Drug-treated) ([1]; 30-min progressive ratio session)	Mean EtOH Consumed in g/kg (Drug-treated) (P rats; 3 mg/kg oral) [g/kg]	Reduction vs. Vehicle (EtOH consumed) (P rats; 3 mg/kg oral) [%]	Mean EtOH Consumed in g/kg (Drug-treated) (P rats; 10 mg/kg oral) [g/kg]	Reduction vs. Vehicle (EtOH consumed) (P rats; 10 mg/kg oral) [%]	Mean EtOH Consumed in g/kg (Drug-treated) (P rats; 30 mg/kg oral) [g/kg]	Reduction vs. Vehicle (EtOH consumed) (P rats; 30 mg/kg oral) [%]	ethanol self-administration (P rats; free-choice access, P rats and msP rats, result in words)
O=C1CC[C@@]2(O)[C@H]3Cc4ccc(O)c5c4[C@@]2(CCN3CC2CC2)[C@H]1O5 [naltrexone, reference compound]	3.30 g/kg and 2.83 g/kg and 3.31 g/kg	30.2% and 45.0% and 36.0%	75.4	106.33							
Cc1nn(-c2c(F)cccc2F)cc1CN1CCC2(CC1)OCC(F)(F)c1cc(Cl)sc12 [Compound 5, 2-chloro-1′-[[l-(2,6-difluorophenyl)-3-methyl-pyrazol-4-yl]methyl]-4,4-difluoro-spiro[5H-thieno[2,3-c]pyran-7,4′-piperidine]]					4.39	15.0	4.05	21.5	3.74	27.6	significantly reduce ethanol self-administration
